Results taken from patent US12721831B2, “Tetrahydrocurcuminoid-metal complexes, manufacturing methods thereof, and uses thereof” (Probioticsmart, LLC, priority 2020, dated 2026).

Tests used:
[1] = DPPH radical scavenging antioxidant assay; assay type: biochemical; settings: 0.125-0.50 mg/mL in ethanol, 30 min at RT, 517 nm; ranking among the three
Method: The reaction mixture was mixed thoroughly and left in the dark at RT for 30 min. The absorbance of the mixture was measured spectrophotometrically at 517 nm. Trolox was used as reference. Percentage DPPH radical scavenging activity was calculated by the following equation:
[formula] • Acs: Blank 1—Blank 2 • As: Absorbance of samples—Blank 2 Then % of inhibition was plotted against concentration.

[2] = 1 gram oral, chicken serum, 280 nm and 425 nm
Method: Three chickens (Rhode Island Red) that were each 2 years old weighing 5 pounds were selected, and 1 ml of blood was removed from the wing vein for baseline measurements. The blood was allowed to clot and the plasma was removed by centrifugation for subsequent baseline analysis. The chickens were allowed to rest overnight. The contents of each of the respective syringes were then administered to separate chickens via the mouth, ensuring that the contents were consumed. Blood was removed at 2, 4, and 24 hours from each bird and allowed to clot.

[3] = cited from earlier work
influenza varieties = settings: laboratory cells infected with influenza varieties; cited from earlier work

Compound | antioxidant activity (DPPH radical scavenging, FIG. 16) [1] | HPLC peaks in serum at the 2-hour, 4-hour, and 24-hour timepoints [2] | water solubility [3] | reduction of viral replication (influenza varieties)
COc1cc(CCC(=O)CC(=O)CCc2ccc(O)c(OC)c2)ccc1O [tetrahydrocurcumin] | higher antioxidant activity than curcumin but less than the tetrahydrocurcumin-Zn-curcumin | could be seen | not very water soluble | –
COc1cc(/C=C/C(=O)CC(=O)/C=C/c2ccc(O)c(OC)c2)ccc1O [curcumin] | – | – | – | over 90%
